This note sets out measurements from patent EP0508004A1, “Phenylsulfonylalkanoic acid compounds” (Kissei Pharmaceutical Co., Ltd., priority 1991, dated 1992).

The test system of one test is Gallbladder strips. In words: CCK-antagonism in isolated gallbladder (contraction of strips induced by CCK-8). Type of test: cell-based, Hartley guinea-pig. Particulars: Cavia porcellus; antagonism of gallbladder contraction induced by 10⁻⁸ M CCK-8, guinea-pig strips, Krebs solution, 37°C; read-out: IC₅₀. The method, then:
Gallbladder strips isolated from male Hartley guinea-pig were prepared and suspended in Magnus bath filled with Krebs solution (1 g of initial tension). The solution kept at 37°C was aerated with a mixture of 95% O₂ and 5% CO₂. The isometric contraction of strips was recorded through a force-displacement transducer. Antagonism by test drugs against gallbladder contraction induced by 10⁻⁸ M CCK-8 was examined and IC₅₀ value was calculated.

For the next test, the system named is amylase secretion. In words: Effect on amylase secretion in rats (stimulated by CCK-8). It is filed as in vivo. The following applies: Rattus norvegicus, sc; intraduodenal administration 30 minutes before CCK-8 (10 µg/kg, subcutaneous); anesthetized male Wistar rats; amylase in biliopancreatic juice; read-out: ED₅₀. Here is the method: Male Wistar rats were anesthetized with urethane (1.5 g/kg, S.C.), and tracheal cannula was inserted. Biliopancreatic juice was collected from the cannula which had been inserted into the common bile duct. Thirty minutes after intraduodenal administration of test drug, anylase secretion was stimulated by subcutaneous injection of CCK-8 (10 µg/kg). Amylase concentration in the sample collected every 30 minutes during experiment was assayed using Amylase B Test (Wako), and ED₅₀ value was calculated.

Consider `CCCCCN(CCCCC)C(=O)C(CC(=O)O)CS(=O)(=O)c1ccc(Cl)c(Cl)c1` (racemic) [Compound 29], for which the IC50 in the test with Gallbladder strips stood at 37 µM. In the test with amylase secretion, the ED50 stood at 9.9 mg/kg. On to `CCCCCCN(CCCCCC)C(=O)C(CCC(=O)O)CS(=O)(=O)c1ccc(Cl)c(Cl)c1` (racemic) [Compound 33], for which, in the test on amylase secretion, the ED50 came to 7.1 mg/kg.
